According to PubChem BioAssay AID2060909 (Molecular Pharmacology Branch, DTP, NCI, 2025):
Blank lines part the entries; values can stand above or below the compound they belong to.

System: 362531-283-R-J2-PDC complex spheroid viability
Experiment: Anticancer human tumor 362531-283-R-J2-PDC patient-derived colon adenocarcinoma cell line growth inhibition [RAS]
Conditions: for viability, T/C: stronger effect = lower value
In short: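 Tumour cells grown as complex spheroids with HUVEC endothelial cells and mesenchymal stem cells, treated with RAS pathway inhibitor combinations. Each agent spans half-log steps from near clinical Cmax, or 10 microM where Cmax is unknown.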

[1] = curve of first compound, second compound 0.000949 µM
[2] = curve of first compound, second compound 0.003 µM
[3] = curve of first compound, second compound 0.00949 µM
[4] = curve of first compound, second compound 0.03 µM
[5] = curve of first compound, second compound 0.0949 µM
[6] = curve of first compound, second compound 0.3 µM
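Note: spheroids exposed to the agents for 7 days before readout.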
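Throughout, for viability, T/C: luminescence viability as percent of DMSO vehicle control wells.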

IC50 [1]: > 300 nM
IC50 [2]: > 300 nM
IC50 [3]: > 300 nM
IC50 [4]: > 300 nM
IC50 [5]: > 300 nM
IC50 [6]: < 0.949 nM
Structure (SMILES): CC1(C)CCC(Nc2ncc(C(F)(F)F)c(-c3c[nH]c4c(P(C)(C)=O)c(C#N)ccc34)n2)CN1 (stereo not drawn) + CCn1c(-c2cc(N3CCN(C)CC3)cnc2C(C)OC)c2c3cc(ccc31)-c1csc(n1)CC(NC(=O)C1CC1C)C(=O)N1CCCC(N1)C(=O)OCC(C)(C)C2
viability, T/C (second compound 0.000949 µM, first compound 0.000949 µM): 104%
viability, T/C (second compound 0.000949 µM, first compound 0.003 µM): 97.3%
viability, T/C (second compound 0.000949 µM, first compound 0.00949 µM): 100%
viability, T/C (second compound 0.000949 µM, first compound 0.03 µM): 99.7%
viability, T/C (second compound 0.000949 µM, first compound 0.0949 µM): 93%
viability, T/C (second compound 0.000949 µM, first compound 0.3 µM): 95.1%
viability, T/C (second compound 0.003 µM, first compound 0.000949 µM): 104%
viability, T/C (second compound 0.003 µM, first compound 0.003 µM): 102%
viability, T/C (second compound 0.003 µM, first compound 0.00949 µM): 104%
viability, T/C (second compound 0.003 µM, first compound 0.03 µM): 97.1%
viability, T/C (second compound 0.003 µM, first compound 0.0949 µM): 101%
viability, T/C (second compound 0.003 µM, first compound 0.3 µM): 95.3%
viability, T/C (second compound 0.00949 µM, first compound 0.000949 µM): 103%
viability, T/C (second compound 0.00949 µM, first compound 0.003 µM): 110%
viability, T/C (second compound 0.00949 µM, first compound 0.00949 µM): 101%
viability, T/C (second compound 0.00949 µM, first compound 0.03 µM): 100%
viability, T/C (second compound 0.00949 µM, first compound 0.0949 µM): 105%
viability, T/C (second compound 0.00949 µM, first compound 0.3 µM): 104%
viability, T/C (second compound 0.03 µM, first compound 0.000949 µM): 101%
viability, T/C (second compound 0.03 µM, first compound 0.003 µM): 107%
viability, T/C (second compound 0.03 µM, first compound 0.00949 µM): 93.7%
viability, T/C (second compound 0.03 µM, first compound 0.03 µM): 92.9%
viability, T/C (second compound 0.03 µM, first compound 0.0949 µM): 98.6%
viability, T/C (second compound 0.03 µM, first compound 0.3 µM): 98.5%
viability, T/C (second compound 0.0949 µM, first compound 0.000949 µM): 85%
viability, T/C (second compound 0.0949 µM, first compound 0.003 µM): 82%
viability, T/C (second compound 0.0949 µM, first compound 0.00949 µM): 75.9%
viability, T/C (second compound 0.0949 µM, first compound 0.03 µM): 82.2%
viability, T/C (second compound 0.0949 µM, first compound 0.0949 µM): 82.2%
viability, T/C (second compound 0.0949 µM, first compound 0.3 µM): 102%
viability, T/C (second compound 0.3 µM, first compound 0.000949 µM): 40.9%
viability, T/C (second compound 0.3 µM, first compound 0.003 µM): 52%
viability, T/C (second compound 0.3 µM, first compound 0.00949 µM): 60.3%
viability, T/C (second compound 0.3 µM, first compound 0.03 µM): 58.7%
viability, T/C (second compound 0.3 µM, first compound 0.0949 µM): 68.5%
viability, T/C (second compound 0.3 µM, first compound 0.3 µM): 76.8%

IC50 (curve of compound): 226 nM [middle of 4 runs]
Structure (SMILES): CC(=O)OC12COC1CC(O)C1(C)C(=O)C(O)C3=C(C)C(OC(=O)C(O)C(NC(=O)OC(C)(C)C)c4ccccc4)CC(O)(C(OC(=O)c4ccccc4)C21)C3(C)C (stereo not drawn)
viability, T/C (compound 0.0316 µM): 101% [middle of 4 runs]
viability, T/C (compound 0.1 µM): 90.8% [middle of 4 runs]
viability, T/C (compound 0.316 µM): 32.6% [middle of 4 runs]
viability, T/C (compound 1 µM): 21.6% [middle of 4 runs]
viability, T/C (compound 3.16 µM): 27.5% [middle of 4 runs]
viability, T/C (compound 10 µM): 36% [middle of 4 runs]

IC50 (curve of compound): 167 nM [middle of 4 runs]
Structure (SMILES): Nc1ccn(C2OC(CO)C(O)C2(F)F)c(=O)n1 (stereo not drawn)
viability, T/C (compound 0.00316 µM): 93.5% [middle of 4 runs]
viability, T/C (compound 0.01 µM): 95.2% [middle of 4 runs]
viability, T/C (compound 0.0316 µM): 84.4% [middle of 4 runs]
viability, T/C (compound 0.1 µM): 70.5% [middle of 4 runs]
viability, T/C (compound 0.316 µM): 21.9% [middle of 4 runs]
viability, T/C (compound 1 µM): 26.6% [middle of 4 runs]

IC50 [1]: 169 nM
IC50 [2]: 153 nM
IC50 [3]: 177 nM
IC50 [4]: 189 nM
IC50 [5]: 132 nM
IC50 [6]: 163 nM
Structure (SMILES): Nc1ccn(C2OC(CO)C(O)C2(F)F)c(=O)n1 (stereo not drawn) + CCn1c(-c2cccnc2C(C)OC)c2c3cc(ccc31)N1CCOC(CC(NC(=O)C(C(C)C)N(C)C(=O)C3(F)CCN(C(=O)C#CC(C)(C)N(C)C)CC3)C(=O)N3CCCC(N3)C(=O)OCC(C)(C)C2)C1
viability, T/C (second compound 0.000949 µM, first compound 0.00316 µM): 100%
viability, T/C (second compound 0.000949 µM, first compound 0.01 µM): 95.5%
viability, T/C (second compound 0.000949 µM, first compound 0.0316 µM): 69.5%
viability, T/C (second compound 0.000949 µM, first compound 0.1 µM): 77.3%
viability, T/C (second compound 0.000949 µM, first compound 0.316 µM): 22.2%
viability, T/C (second compound 0.000949 µM, first compound 1 µM): 31.3%
viability, T/C (second compound 0.003 µM, first compound 0.00316 µM): 103%
viability, T/C (second compound 0.003 µM, first compound 0.01 µM): 92.9%
viability, T/C (second compound 0.003 µM, first compound 0.0316 µM): 77.6%
viability, T/C (second compound 0.003 µM, first compound 0.1 µM): 68.5%
viability, T/C (second compound 0.003 µM, first compound 0.316 µM): 22.9%
viability, T/C (second compound 0.003 µM, first compound 1 µM): 33.2%
viability, T/C (second compound 0.00949 µM, first compound 0.00316 µM): 103%
viability, T/C (second compound 0.00949 µM, first compound 0.01 µM): 93.2%
viability, T/C (second compound 0.00949 µM, first compound 0.0316 µM): 73.4%
viability, T/C (second compound 0.00949 µM, first compound 0.1 µM): 77.4%
viability, T/C (second compound 0.00949 µM, first compound 0.316 µM): 19.2%
viability, T/C (second compound 0.00949 µM, first compound 1 µM): 25.5%
viability, T/C (second compound 0.03 µM, first compound 0.00316 µM): 111%
viability, T/C (second compound 0.03 µM, first compound 0.01 µM): 83.5%
viability, T/C (second compound 0.03 µM, first compound 0.0316 µM): 86.8%
viability, T/C (second compound 0.03 µM, first compound 0.1 µM): 82.2%
viability, T/C (second compound 0.03 µM, first compound 0.316 µM): 20.1%
viability, T/C (second compound 0.03 µM, first compound 1 µM): 27.6%
viability, T/C (second compound 0.0949 µM, first compound 0.00316 µM): 100%
viability, T/C (second compound 0.0949 µM, first compound 0.01 µM): 91.7%
viability, T/C (second compound 0.0949 µM, first compound 0.0316 µM): 69.5%
viability, T/C (second compound 0.0949 µM, first compound 0.1 µM): 69.6%
viability, T/C (second compound 0.0949 µM, first compound 0.316 µM): 19.7%
viability, T/C (second compound 0.0949 µM, first compound 1 µM): 26.8%
viability, T/C (second compound 0.3 µM, first compound 0.00316 µM): 96.2%
viability, T/C (second compound 0.3 µM, first compound 0.01 µM): 90%
viability, T/C (second compound 0.3 µM, first compound 0.0316 µM): 73.3%
viability, T/C (second compound 0.3 µM, first compound 0.1 µM): 69.2%
viability, T/C (second compound 0.3 µM, first compound 0.316 µM): 23.2%
viability, T/C (second compound 0.3 µM, first compound 1 µM): 24.2%
